Here are results for five molecules from US9249125B2, “Pyrazole derivatives as p38 MAP inhibitors” (RESPIVERT LIMITED, priority 2012, dated 2016).

Structures are written as SMILES.

For one data set, the target named is Syk (Homo sapiens (Human), UniProt P43405). As to the kind of experiment: Syk enzyme inhibition (FRET, Z-LYTE). It counts as biochemical. The protocol: (§1) The enzyme inhibitory activities of compounds disclosed herein are determined by FRET using synthetic peptides labelled with both donor and acceptor fluorophores (Z-LYTE, Invitrogen Ltd., Paisley, UK).
(§2) The relevant enzyme (3000 ng/mL or 2000 ng/mL respectively, 2.5 μL) is incubated with the test compound (either 4 μg/mL, 0.4 μg/mL, 0.04 μg/mL, or 0.004 μg/mL, 2.5 μL each) for 2 hr at RT. The FRET peptides (8 μM, 2.5 μL), and appropriate ATP solutions (2.5 μL, 800 μM for c-Src, and 60 μM ATP for Syk) are then added to the enzymes/compound mixtures and incubated for 1 hr. Development reagent (protease, 5 μL) is added for 1 hr prior to detection in a fluorescence microplate reader (Varioskan® Flash, ThermoFisher Scientific).
(§3) In all cases, the site-specific protease cleaves non-phosphorylated peptide only and eliminates the FRET signal. Phosphorylation levels of each reaction are calculated using the ratio of coumarin emission (donor) over fluorescein emission (acceptor), for which low ratios indicate high phosphorylation and high ratios indicate low phosphorylation levels.

Data set [1] relates to LPS-induced IL-8 release in d-U937 cells. Put plainly: LPS-induced IL-8 release in d-U937 cells. The format is cell-based. The note with it: Homo sapiens, dU937, read-out: LPS Induced Release of Cytokine in d-937 Cells IL-8 IC50. The procedure: (§4) U937 cells, a human monocytic cell line, are differentiated into macrophage-type cells by incubation with PMA (100 ng/mL) for 48 to 72 hr. Cells are pre-incubated with final concentrations of test compound for 2 hr and are then stimulated with LPS (0.1 μg/mL) (from E. coli: O111:B4, Sigma) for 4 hr. The supernatant is collected for determination of TNFα and IL-8 concentrations by sandwich ELISA (Duo-set, R&D systems). […] The relative 50% effective concentration (REC50) is determined from the resultant concentration-response curve. The inhibition of IL-8 production is calculated at each concentration of test compound by comparison with vehicle control. […] (b) LPS-Induced TNFα/IL-8 Release in PBMC Cells

A further data set addresses cSrc (Homo sapiens (Human), UniProt P12931). As to the kind of experiment: c-Src enzyme inhibition (FRET, Z-LYTE). The format is biochemical. The protocol:
as §1, §2, §3

The next data set addresses GSK3α (Homo sapiens (Human), UniProt P49840). As to the kind of experiment: GSK 3α enzyme inhibition (FRET, Z-LYTE). It counts as biochemical. The procedure: as §1
The inhibitory activities of compounds of the invention against the GSK 3α enzyme isoform (Invitrogen), are evaluated by determining the level of activation/phosphorylation of the target peptide. The GSK3-α protein (500 ng/mL, 2.5 μL) is mixed with the test compound (2.5 μL at either 4 μg/mL, 0.4 μg/mL, 0.04 μg/mL, or 0.004 μg/mL) for 2 hr at RT. The FRET peptide (8 μM, 2.5 μL), which is a phosphorylation target for GSK3α, and ATP (40 μM, 2.5 μL) are then added to the enzyme/compound mixture and the resulting mixture incubated for 1 hr. Development reagent (protease, 5 μL) is added for 1 hr prior to detection in a fluorescence microplate reader (Varioskan® Flash, ThermoFisher Scientific).
as §3

Data set [2] relates to Poly I:C-induced ICAM-1 expression in BEAS2B cells. As to the kind of experiment: Poly I:C-induced ICAM-1 expression in BEAS2B cells. It counts as cell-based. The settings on record: Homo sapiens, BEAS-2B, read-out: Poly IC induced ICAM1 in BEAS2B IC50. The procedure:
Poly I:C is used in these studies as a simple, RNA virus mimic. Poly I:C-Oligofectamine mixture (1 μg/mL Poly I:C, ±2% Oligofectamine, 25 uL) (Invivogen Ltd., San Diego, Calif., and Invitrogen, Carlsbad, Calif., respectively) is transfected into BEAS2B cells (human bronchial epithelial cells, ATCC). Cells are pre-incubated with final concentrations of test compounds for 2 hr and the level of ICAM1 expression on the cell surface is determined by cell-based ELISA. At a time point 18 hr after poly I:C transfection, cells are fixed with 4% formaldehyde in PBS (100 μL) and then endogenous peroxidase is quenched by the addition of washing buffer (100 μL, 0.05% Tween in PBS: PBS-Tween) containing 0.1% sodium azide and 1% hydrogen peroxide. Cells are washed with wash-buffer (3×200 μL). and after blocking the wells with 5% milk in PBS-Tween (100 μL) for 1 hr, the cells are incubated with anti-human ICAM-1 antibody (50 μL) (Cell Signaling Technology, Danvers, Mass.) in 1% BSA PBS overnight at 4° C.
The cells are washed with PBS-Tween (3×200 μL) and incubated with the secondary antibody (100 μL) (HRP-conjugated anti-rabbit IgG, Dako Ltd., Glostrup, Denmark). The cells are then incubated with of substrate (50 μL) for 2-20 min, followed by the addition of stop solution (50 μL, 1N H2SO4). The ICAM-1 signal is detected by reading and reading the absorbance at 450 nm against a reference wavelength of 655 nm using a spectrophotometer. The cells are then washed with PBS-Tween (3×200 μL) and total cell numbers in each well are determined by reading absorbance at 595 nm after Crystal Violet staining (50 μL of a 2% solution in PBS) and elution by 1% SDS solution (100 μL) in distilled water. The measured OD 450-655 readings are corrected for cell number by dividing with the OD595 reading in each well.

Data set [3] concerns LPS-induced TNFα release in d-U937 cells. Put plainly: LPS-induced TNFα release in d-U937 cells. The format is cell-based. The note with it: Homo sapiens, dU937, relative to 10 μg/mL BIRB796, read-out: LPS Induced Release of Cytokine in d-937 Cells TNFα REC50. The procedure:
as §4

For the next data set, the system named is d-U937 cells. Put plainly: Cell viability: MTT assay. It counts as cell-based, human. The settings on record: 1 μg/mL. The procedure: Differentiated U937 cells are pre-incubated with each test compound (final concentration 1 μg/mL or 10 μg/mL in 200 μL media indicated below) under two protocols: the first for 4 hr in 5% FCS RPMI1640 media and the second in 10% FCS RPMI1640 media for 24 h. The supernatant is replaced with new media (200 μL) and MTT stock solution (10 μL, 5 mg/mL) is added to each well. After incubation for 1 hr the media are removed, DMSO (200 μL) is added to each well and the plates are shaken lightly for 1 hr prior to reading the absorbance at 550 nm. The percentage loss of cell viability is calculated for each well relative to vehicle (0.5% DMSO) treatment. Consequently an apparent increase in cell viability for drug treatment relative to vehicle is tabulated as a negative percentage.
(Formazan colour is commonly taken as a measure of viable cells.)

The target in a further data set is p38 MAPKα (Homo sapiens (Human), UniProt Q16539). Put plainly: p38 MAPKα enzyme inhibition (FRET, Z-LYTE). It counts as biochemical. The procedure: as §1
The inhibitory activities of test compounds against the p38 MAPKα isoform (MAPK14: Invitrogen), are evaluated indirectly by determining the level of activation/phosphorylation of the down-stream molecule, MAPKAP-K2. The p38 MAPKα protein (80 ng/mL, 2.5 μL) is mixed with the test compound (2.5 μL of either 4 μg/mL, 0.4 μg/mL, 0.04 μg/mL or 0.004 μg/mL) for 2 hr at RT. […] The mixture is incubated for 1 hr at RT. Development reagent (protease, 5 μL) is added for 1 hr prior to detection in a fluorescence microplate reader (Varioskan® Flash, ThermoFisher Scientific).
as §3

p38 MAPKα, sequence (Q16539 whole entry, canonical isoform): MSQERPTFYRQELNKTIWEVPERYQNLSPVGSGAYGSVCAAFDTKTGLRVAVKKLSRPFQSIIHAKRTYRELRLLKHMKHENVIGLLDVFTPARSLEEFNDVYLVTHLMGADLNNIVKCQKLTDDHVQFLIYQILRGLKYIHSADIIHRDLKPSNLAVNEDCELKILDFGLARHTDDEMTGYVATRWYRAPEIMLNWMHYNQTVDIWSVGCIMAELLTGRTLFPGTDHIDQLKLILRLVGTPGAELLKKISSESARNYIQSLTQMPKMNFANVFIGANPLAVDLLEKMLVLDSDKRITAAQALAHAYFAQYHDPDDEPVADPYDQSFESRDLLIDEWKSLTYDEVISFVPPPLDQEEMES
GSK3α, sequence (P49840 whole entry, canonical isoform): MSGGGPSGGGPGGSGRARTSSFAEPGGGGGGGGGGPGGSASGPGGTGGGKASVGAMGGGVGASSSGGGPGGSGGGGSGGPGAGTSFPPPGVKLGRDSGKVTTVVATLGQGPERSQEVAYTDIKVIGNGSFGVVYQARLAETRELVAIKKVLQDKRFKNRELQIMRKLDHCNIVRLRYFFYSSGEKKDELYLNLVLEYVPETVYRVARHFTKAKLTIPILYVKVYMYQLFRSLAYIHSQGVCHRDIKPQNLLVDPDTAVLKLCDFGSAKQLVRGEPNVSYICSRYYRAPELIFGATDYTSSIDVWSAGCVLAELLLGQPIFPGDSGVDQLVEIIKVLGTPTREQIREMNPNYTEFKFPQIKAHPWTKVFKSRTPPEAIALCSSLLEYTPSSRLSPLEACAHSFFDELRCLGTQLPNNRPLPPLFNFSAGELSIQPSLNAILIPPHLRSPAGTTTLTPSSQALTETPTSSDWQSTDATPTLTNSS
cSrc, sequence (P12931 whole entry, looked up): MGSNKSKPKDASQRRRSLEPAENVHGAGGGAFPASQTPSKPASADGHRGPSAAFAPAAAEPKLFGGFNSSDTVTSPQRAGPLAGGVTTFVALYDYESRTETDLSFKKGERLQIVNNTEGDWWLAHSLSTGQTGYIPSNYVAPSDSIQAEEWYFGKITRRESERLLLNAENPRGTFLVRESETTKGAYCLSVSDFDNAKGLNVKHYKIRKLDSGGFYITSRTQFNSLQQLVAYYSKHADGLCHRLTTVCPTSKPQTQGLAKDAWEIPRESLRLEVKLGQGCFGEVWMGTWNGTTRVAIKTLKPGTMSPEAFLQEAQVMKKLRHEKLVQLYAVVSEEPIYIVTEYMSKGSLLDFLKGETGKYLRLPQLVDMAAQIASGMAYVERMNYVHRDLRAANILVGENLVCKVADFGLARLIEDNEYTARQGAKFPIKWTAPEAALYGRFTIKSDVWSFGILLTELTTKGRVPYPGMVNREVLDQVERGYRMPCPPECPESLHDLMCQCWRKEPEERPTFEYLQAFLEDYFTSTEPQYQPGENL

Usually IC50 stands for the midpoint of a concentration-inhibition curve. On to `Cc1cc(Nc2nccc(Oc3ccc(NC(=O)Nc4cc(C(C)C)nn4-c4cccc(OCCN5CCOCC5)c4)c4ccccc34)n2)cc2cn[nH]c12` [Example 55, 1-(3-isopropyl-1-(3-(2-morpholinoethoxy)phenyl)-1H-pyrazol-5-yl)-3-(4-((2-((7-methyl-1H-indazol-5-yl)amino)pyrimidin-4-yl)oxy)naphthalen-1-yl)urea], for which the IC50 against Syk was less than 0.001 µM; in data set [1] it was 0.0434 µM; against cSrc, less than 0.001 µM; against GSK3α, greater than 13.5 µM; in data set [2] it was 0.0508 µM; at p38 MAPKα, 0.007 µM. Besides, the EC50 in data set [3] turned out to be 0.0039 µM. Moreover, in the data set on d-U937 cells, the “MTT Assay Cell viability at time point in d-U937 cells 4 h” value is “−ve (−ve and +ve indicate that the value is below and above respectively, the no significant effect threshold, defined as 30% inhibition at 1 μg/mL at the time point indicated.)”. In the data set with d-U937 cells, the “MTT Assay Cell viability at time point in d-U937 cells 24 h” value is “−ve (−ve and +ve indicate that the value is below and above respectively, the no significant effect threshold, defined as 30% inhibition at 1 μg/mL at the time point indicated.)”.
On to `COc1ccc(-n2nc(C(C)(C)C)cc2NC(=O)Nc2ccc(Oc3ccnc(Nc4ccc5c(cnn5C)c4)n3)c3ccccc23)cc1` [Example 41, 1-(3-(tert-butyl)-1-(4-methoxyphenyl)-1H-pyrazol-5-yl)-3-(4-((2-((1-methyl-1H-indazol-5-yl)amino)pyrimidin-4-yl)oxy)naphthalen-1-yl)urea], for which the IC50 was 0.081 µM at Syk; 0.123 µM in data set [1]; 0.016 µM against cSrc; greater than 15.3 µM at GSK3α; 0.0019 µM in data set [2]; 0.128 µM against p38 MAPKα. For the same molecule, in data set [3], the EC50 came to 0.0016 µM. In addition, in the data set with d-U937 cells, the “MTT Assay Cell viability at time point in d-U937 cells 4 h” value is “+ve (−ve and +ve indicate that the value is below and above respectively, the no significant effect threshold, defined as 30% inhibition at 1 μg/mL at the time point indicated.)”. In addition, the “MTT Assay Cell viability at time point in d-U937 cells 24 h” value with d-U937 cells is “−ve (−ve and +ve indicate that the value is below and above respectively, the no significant effect threshold, defined as 30% inhibition at 1 μg/mL at the time point indicated.)”.
Regarding `CC(C)(C)c1cc(NC(=O)Nc2ccc(Oc3ccnc(Nc4ccc5[nH]ncc5c4)n3)c3ccccc23)n(-c2ccc(=O)n(CCO)c2)n1` [Example 86, 1-(4-((2-((1H-indazol-5-yl)amino)pyrimidin-4-yl)oxy)naphthalen-1-yl)-3-(3-(tert-butyl)-1-(1-(2-hydroxyethyl)-6-oxo-1,6-dihydropyridin-3-yl)-1H-pyrazol-5-yl)urea], the IC50 was 0.016 µM against Syk; 0.0041 µM in data set [1]; less than 0.001 µM against cSrc; 0.827 µM at GSK3α; 0.0083 µM in data set [2]; 0.007 µM against p38 MAPKα. Besides, in data set [3], the EC50 was found to be 0.0022 µM. Moreover, in the data set on d-U937 cells, the “MTT Assay Cell viability at time point in d-U937 cells 4 h” value is “−ve (−ve and +ve indicate that the value is below and above respectively, the no significant effect threshold, defined as 30% inhibition at 1 μg/mL at the time point indicated.)”. For the same molecule, the “MTT Assay Cell viability at time point in d-U937 cells 24 h” value with d-U937 cells is “−ve (−ve and +ve indicate that the value is below and above respectively, the no significant effect threshold, defined as 30% inhibition at 1 μg/mL at the time point indicated.)”.
Take `COc1ccc(-n2nc(C(C)(C)C)cc2NC(=O)Nc2ccc(Oc3ccnc(Nc4ccc5[nH]nc(C(=O)N6CCOCC6)c5c4)n3)c3ccccc23)cn1` [Example 83, 1-(3-(tert-butyl)-1-(6-methoxypyridin-3-yl)-1H-pyrazol-5-yl)-3-(4-((2-((3-(morpholine-4-carbonyl)-1H-indazol-5-yl)amino)pyrimidin-4-yl)oxy)naphthalen-1-yl)urea]: the IC50 at Syk turned out to be 0.063 µM; in data set [1], 0.0087 µM; against cSrc it was 0.107 µM; on GSK3α it was 3.78 µM; in data set [2], 0.0029 µM; against p38 MAPKα, 0.01 µM. Besides, the EC50 in data set [3] amounted to 0.0007 µM. The “MTT Assay Cell viability at time point in d-U937 cells 4 h” value in the data set with d-U937 cells is “−ve (−ve and +ve indicate that the value is below and above respectively, the no significant effect threshold, defined as 30% inhibition at 1 μg/mL at the time point indicated.)”. Besides, the “MTT Assay Cell viability at time point in d-U937 cells 24 h” value in the data set on d-U937 cells is “−ve (−ve and +ve indicate that the value is below and above respectively, the no significant effect threshold, defined as 30% inhibition at 1 μg/mL at the time point indicated.)”.
As for `CC(C)(C)c1cc(NC(=O)Nc2ccc(Oc3ccnc(Nc4ccc5c(c4)COC5)n3)c3ccccc23)n(-c2ccc(OCCN3CCOCC3)cc2)n1` [Example 60, 1-(3-(tert-butyl)-1-(4-(2-morpholinoethoxy)phenyl)-1H-pyrazol-5-yl)-3-(4-((2-((1,3-dihydroisobenzofuran-5-yl)amino)pyrimidin-4-yl)oxy)naphthalen-1-yl)urea], the IC50 against Syk was 0.013 µM; in data set [1], 0.0103 µM; against cSrc, 0.002 µM; at GSK3α, 0.686 µM; in data set [2], 0.0014 µM; against p38 MAPKα it was 0.094 µM. For the same molecule, the EC50 in data set [3] was determined as 0.0018 µM. In addition, the “MTT Assay Cell viability at time point in d-U937 cells 4 h” value in the data set with d-U937 cells is “−ve (−ve and +ve indicate that the value is below and above respectively, the no significant effect threshold, defined as 30% inhibition at 1 μg/mL at the time point indicated.)”. Further, the “MTT Assay Cell viability at time point in d-U937 cells 24 h” value in the data set with d-U937 cells was “−ve (−ve and +ve indicate that the value is below and above respectively, the no significant effect threshold, defined as 30% inhibition at 1 μg/mL at the time point indicated.)”.
